Results reported in US6121290A, “Use of GABA uptake inhibitors as anti-tussive agents” (SmithKline Beecham Corporation, priority 1998, dated 2000).

What was measured:
[1] = test system: citric acid-induced cough; assay: Citric acid-induced cough in guinea pigs (anti-tussive activity in vivo); set-up: species or system Male Hartley Guinea pigs; conditions: 0.4M citric acid, 30 min pre-treatment; for Treated (incidences of cough): coughs in 13 minutes; for % Inhibition: cough inhibition vs control
Protocol: Citric acid was nebulized for only one minute to the animals. Coughs were determined by examination of the flow signal and observation of the test animals.
To perform the experiments Male Hartley Guinea pigs weighing between 550, and 750 g were placed into a clear plastic exposure chamber with an internal volume of 6 l. A bias air flow was applied to the chamber at a flow rate of 2 l/min for the duration of the experiment.
An incidence of cough was denoted by a larger than normal inspiration (at least twice normal tidal deflection) followed immediately by a rapid, forceful expiration (more than three times the normal excursion from baseline). A cough was easily distinguished from animal movement, augmented breaths and gasps by close inspection of the data. Because a sneeze and cough have similar flow patterns, they were differentiated by visual observation of the animals.
Test compounds were administered via the IP route, and the pre-treatment time was 30 min. The aerosol was administered to the animals by connecting a small volume ultrasonic nebulizer (AeroSonic model 5000D Devilbis Sumerset, Pa.) to the bias-flow immediately before the exposure chamber inlet. The animals were challenged with 0.4M citric acid aerosol solution. A volume of 2 ml of citric acid solution was placed in the ultrasonic nebulizer. In one minute approximately 0.5 ml of the solution was nebulized to each animal. This has been previously shown to induce the cough reflex. The incidences of cough in 13 minutes (aerosolization time+observation time,) as well as time to onset of the first cough were recorded.

[2] = test system: citric acid-induced cough; assay: as above; set-up: species or system Male Hartley Guinea pigs; conditions: 0.4M citric acid; for Treated (incidences of cough): coughs in 13 minutes; for % Inhibition: cough inhibition vs control
[3] = test system: GABA uptake; conditions: in words, from cited literature; cited from earlier work

O=C(O)C1=CCCN(CCC=C(c2ccccc2)c2ccccc2)C1 [Compound 5, N-(4,4-diphenyl-3-butenyl)-1,2,5,6-tetrahydro-3-pyridinecarboxylic acid]
Treated (incidences of cough) ([1]; 1 mg ip): 15.4
% Inhibition ([1]; 1 mg ip): 5.79%
Treated (incidences of cough) ([1]; 3 mg ip): 12.4
% Inhibition ([1]; 3 mg ip): 20.53%
Treated (incidences of cough) ([1]; 30 mg ip): 1
% Inhibition ([1]; 30 mg ip): 92.48%

O=C(O)CC1CCN(CCC=C(c2ccccc2)c2ccccc2)C1 (centres unmarked) [Compound 1, N-(4,4-diphenyl-3-butenyl)-3-pyrrolidineacetic acid]
Treated (incidences of cough) ([1]; 20 mg ip): 7.2
% Inhibition ([1]; 20 mg ip): 53.13%

O=C(O)[C@@H]1CCCN(CCC=C(c2ccccc2)c2ccccc2)C1 [Compound 3, (R)-N-(4,4-diphenyl-3-butenyl)-3-piperidinecarboxylic acid]
Treated (incidences of cough) ([2]; 10 mg po): 8.2
% Inhibition ([2]; 10 mg po): 42.25%
Treated (incidences of cough) ([2]; 30 mg po): 8
% Inhibition ([2]; 30 mg po): 43.66%
Treated (incidences of cough) ([1]; 1 mg ip): 6.6
% Inhibition ([1]; 1 mg ip): 49.23%
Treated (incidences of cough) ([1]; 10 mg ip): 2.8
% Inhibition ([1]; 10 mg ip): 78.46%
GABA uptake inhibitory activity [3]: having GABA uptake inhibitory activity

O=C(O)C1=CCCNC1 [Compound 4, 1,2,5,6-tetrahydro-3-pyridinecarboxylic acid]
Treated (incidences of cough) ([1]; 6 mg ip): 7.6
% Inhibition ([1]; 6 mg ip): 48.30%
Treated (incidences of cough) ([1]; 20 mg ip): 4.75
% Inhibition ([1]; 20 mg ip): 67.69%
GABA uptake inhibitory activity [3]: having GABA uptake inhibitory activity

O=C(O)C1CCCNC1 (centres unmarked) [Compound 2, 3-piperidinecarboxylic acid]
Treated (incidences of cough) ([1]; 20 mg ip): 9.75
% Inhibition ([1]; 20 mg ip): 28.36%

Cc1ccsc1C(=CCCN1CCC[C@@H](C(=O)O)C1)c1sccc1C [(R)-1-[4,4-bis(3-methyl-2-thienyl)-3-butenyl]-3-piperidinecarboxylic acid, reference compound]
GABA uptake inhibitory activity [3]: having GABA uptake inhibitory activity

O=C(O)[C@@H]1CNCC[C@@H]1O (relative stereo) [Compound 6, cis4-hydroxy-3-piperidinecarboxylic acid]
Treated (incidences of cough) ([1]; 10 mg ip): 16.3
% Inhibition ([1]; 10 mg ip): 8.21%
Treated (incidences of cough) ([1]; 20 mg ip): 8.6
% Inhibition ([1]; 20 mg ip): 35.82%
